Key:
[1] = Bhuyan et al. Cancer Res. 42, 3532-3537 (1982); cited from earlier work
[2] = test system: MDA-MB-231 breast cancer cells; experiment: MDA-MB-231 orthotopic model of tumor metastasis (lung metastases after resection of the primary tumor); format: in vivo; details: human MDA-MB-231 cells in mouse mammary fat pad, tumors resected day 24, treatment from day 28, IP twice weekly; Comp-I 30 mg/kg, bevacizumab 5 mg/kg; control cohort 84%
Text: MDA-MB-231 breast tumor cells implanted in mammary fat pad of mice and resultant tumors resected day 24. Drug treatment was initiated on day 28 and mice were sacrificed at 118 days and local regrowth and lung metastases evaluated.
Human MDA-MB-231 breast cancer cells were implanted in the mouse mammary fat pads at day 0 (1×10^6 MDA-MB-231 breast cancer cells). The resultant tumors were resected at day 24 and treatment initiated 4 days later (Mean tumor volume at resection=400 mm^3). Treatment groups were as follows: Control: PBS, Comp-I: 30 mg/kg, and bevacizumab 5 mg/kg (100 μL IP injections twice weekly). When mice were sacrificed, the extent of local regrowth and numbers of lung metastases were evaluated.

Molecule	potency in vitro relative to commonly used anti-cancer drugs (doxorubicin, methotrexate, vincristine) [1]	mice showing lung metastases (incidence of metastases) [2]
COc1c(O)c2c(c3cc(C(=O)N4CCc5c4c(O)c(OC)c4[nH]c(C(=O)N6CC7CC78C6=CC(=O)c6[nH]cc(C)c68)cc54)[nH]c13)CCN2C(N)=O (centres unmarked) [CC-1065]	about 1000 fold	–
bevacizumab	–	74%

Source: patent US20100285000A1, “USE OF VEGFR-2 INHIBITORS FOR TREATING METASTATIC CANCER” (BRISTOL-MYERS SQUIBB COMPANY, priority 2007, published 2010)
